Assay [1] deals with T1, CALP (CAL PDZ domain) (Homo sapiens, UniProt Q9HD26). Briefly: FP competition. The format is binding. The note with it: reporter F*-iCAL36, PDZ ~[…] Kd, triplicate experiments.
The target in the next assay is T2, N1P1 (NHERF1 PDZ1) (Homo sapiens, UniProt O14745).
T2 sequence (O14745 14-94 limits assumed): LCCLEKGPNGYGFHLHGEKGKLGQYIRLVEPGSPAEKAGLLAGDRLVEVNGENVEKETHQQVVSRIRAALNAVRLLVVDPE
Briefly: FP displacement binding to NHERF1 PDZ1.

Another assay has as its target T3, N1P2 (NHERF1 PDZ2) (Homo sapiens, UniProt O14745).
T3 sequence (O14745 154-234 limits assumed): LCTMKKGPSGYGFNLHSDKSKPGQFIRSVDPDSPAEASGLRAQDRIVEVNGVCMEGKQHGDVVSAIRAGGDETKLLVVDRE
Briefly: FP displacement binding to NHERF1 PDZ2.

Another assay addresses N2P1 (NHERF2 PDZ1) (Homo sapiens, UniProt Q15599). Briefly: FP displacement binding to NHERF2 PDZ1.
The next assay addresses N2P2 (NHERF2 PDZ2) (Homo sapiens, UniProt Q15599). Briefly: FP displacement binding to NHERF2 PDZ2.
The next assay concerns the target iCAL36. Briefly: fluorescence polarization competition. The note with it: cited from earlier work.
A further assay deals with CFTR (Homo sapiens). Briefly: fluorescence polarization competition. The settings on record: cited from earlier work. Background: In fluorescence polarisation assays a small probe gives low polarisation when free and higher when bound to something large.
The next assay concerns the target iCAL36L. Briefly: fluorescence polarization competition. The note with it: cited from earlier work.
Assay [2] concerns the target T1, CALP (CAL PDZ domain). The settings on record: K*-designed hexamer; ref Roberts et al., 2012; cited from earlier work.
The target of another assay is T4, iCAL36QDTRL.
T4 chain: ANSRWQDTRL
Briefly: fluorescence polarization competition.

The target of the next assay is T5, iCAL36TRL.
T5 chain: ANSRWPTTRL
Briefly: fluorescence polarization competition.

A further assay deals with T6, iCAL36Q-4.
T6 chain: ANSRWQTSII
Briefly: fluorescence polarization competition.

In another assay the target is T7, iCAL36VQD-3.
T7 chain: ANSRVQDSII
Briefly: fluorescence polarization competition.

The target of another assay is T8, F*-CFTR6 (Homo sapiens).
T8 chain: {Fluorescein-Ahx}-VQDTRL
Briefly: fluorescence polarization.

Ends that are not written are not given here. Ahx = NCCCCCC(=O)O

For the molecule `CC(C)C[C@H](NC(=O)[C@H](CCCNC(=N)N)NC(=O)[C@@H](NC(=O)[C@@H](NC(=O)[C@H](CCC(N)=O)NC(=O)[C@@H](NC(=O)[C@H](CCC(=O)O)NC(=O)[C@H](CCC(=O)O)NC(=O)[C@H](CCC(=O)O)NC(=O)[C@@H](N)[C@@H](C)O)C(C)C)[C@@H](C)O)[C@@H](C)O)C(=O)O` [CFTRT^-3], the Ki on CALP (CAL PDZ domain) [1] was 18 ± 5.5 µM; on N1P1 (NHERF1 PDZ1) it was 0.76 ± 0.51 µM; on N1P2 (NHERF1 PDZ2), 4.6 ± 1.6 µM; on N2P1 (NHERF2 PDZ1) it was 1.3 ± 0.4 µM; on N2P2 (NHERF2 PDZ2) it was 0.45 ± 0.25 µM.
In the case of `CC[C@H](C)[C@H](NC(=O)[C@@H](NC(=O)[C@H](CO)NC(=O)[C@@H](NC(=O)[C@H](CCC(N)=O)NC(=O)[C@H](Cc1c[nH]c2ccccc12)NC(=O)[C@H](CCCNC(=N)N)NC(=O)[C@H](CO)NC(=O)[C@H](CC(N)=O)NC(=O)[C@H](C)N)[C@@H](C)O)[C@@H](C)CC)C(=O)O` [iCAL36Q^-4], the values for the Ki on N1P1 (NHERF1 PDZ1), at N1P2 (NHERF1 PDZ2) and on N2P1 (NHERF2 PDZ1) were 280 ± 100 µM, greater than 1000 µM and 300 ± 100 µM, respectively.
As to ANSRVQDSII [iCAL36VQD^-3], the Ki at CALP (CAL PDZ domain) [1], on N1P1 (NHERF1 PDZ1), at N1P2 (NHERF1 PDZ2) and at N2P1 (NHERF2 PDZ1) was greater than 1000 µM throughout.
For ANSRVQDTRL [iCAL36VQDTRL], the Ki at N1P1 (NHERF1 PDZ1) was 2.5 ± 0.3 µM; on N1P2 (NHERF1 PDZ2) it was 6.5 ± 2.3 µM; at N2P1 (NHERF2 PDZ1), 3.8 ± 1.4 µM; at N2P2 (NHERF2 PDZ2) it was 0.94 ± 0.42 µM.
Regarding ANSRWPTTRL [iCAL36TRL], the Ki on N1P1 (NHERF1 PDZ1) was found to be 8 ± 1.4 µM; on N2P1 (NHERF2 PDZ1) it was 8.7 ± 3.1 µM; on N2P2 (NHERF2 PDZ2) it was 16.5 ± 3.9 µM.
For ANSRWQDTRL [iCAL36QDTRL], the Ki on N1P1 (NHERF1 PDZ1) was determined as 1.5 ± 0.2 µM; at N1P2 (NHERF1 PDZ2), 6.7 ± 2.4 µM; at N2P1 (NHERF2 PDZ1), 3.1 ± 1.4 µM; at N2P2 (NHERF2 PDZ2), 1.1 ± 0.6 µM.
Turning to N1P1 PDZ1 (from UniProt O14745), the Ki in the assay with iCAL36 was greater than 1000 µM.
Consider N1P2 PDZ2 (from UniProt O14745), for which the Ki in the assay with CFTR (Homo sapiens) was 1.8 µM; with iCAL36L, greater than 1000 µM; with iCAL36 it was greater than 1000 µM.
On to N2P1 PDZ1 (from UniProt Q15599), for which, in the assay with iCAL36, the Ki is greater than 1000 µM.
Consider N2P2 PDZ2 (from UniProt Q15599), for which the Ki in the assay with iCAL36 was greater than 1000 µM.
Consider WQVTRV [kCAL01], for which the “CALP affinity in words” value at CALP (CAL PDZ domain) [2] is “highest affinity observed to date for a hexameric sequence”.

B1: N2P1 PDZ1 (protein)
chain: RPRLCRLVRGEQGYGFHLHGEKGRRGQFIRRVEPGSPAEAAALRAGDRLVEVNGVNVEGETHHQVVQRIKAVEGQTRLLVVDQETD
On to B1, for which the Ki with iCAL36QDTRL was 3.1 µM; with iCAL36TRL it was 8.7 µM; with iCAL36Q-4 it was 300 µM; with iCAL36VQD-3, greater than 1000 µM.

B2: N2P2 PDZ2 (protein)
chain: LRPRLCHLRKGPQGYGFNLHSDKSRPGQYIRSVDPGSPAARSGLRAQDRLIEVNGQNVEGLRHAEVVASIKAREDEARLLVVDPETD
Regarding B2, the Ki was found to be 1.1 µM with iCAL36QDTRL, 16.5 µM with iCAL36TRL and 450 µM with iCAL36Q-4.

B3: N1P2 PDZ2 (protein)
chain: RPRLCTMKKGPSGYGFNLHSDKSKPGQFIRSVDPDSPAEASGLRAQDRIVEVNGVCMEGKQHGDVVSAIRAGGDETKLLVVDRETDE
Turning to B3, the results for the Ki with iCAL36TRL, with iCAL36Q-4 and with iCAL36VQD-3 were 110 µM, greater than 1000 µM and greater than 1000 µM, respectively.

B4: N1P1 PDZ1 (protein)
chain: LPRLCCLEKGPNGYGFHLHGEKGKLGQYIRLVEPGSPAEKAGLLAGDRLVEVNGENVEKETHQQVVSRIRAALNAVRLLVVDPETDE
The molecule B4 registered a Kd with F*-CFTR6 of 0.37 µM. In addition, the inhibitory constant (Ki) in the assay with iCAL36TRL was 8 µM; with iCAL36Q-4, 280 µM; with iCAL36VQD-3, greater than 1000 µM.

As usually defined, the Ki is a measure of affinity in units of concentration, obtained from inhibition or displacement. In general, Kd refers to the equilibrium constant for the complex coming apart.

(Values after PMC3947174 (Structure (London, England : 1993), 2013).)
